Where two headings read alike, the source gives them in different places.
How the values were obtained:
[1] = Pharmacokinetics of NA and NUA in plasma after single oral doses of Niacin extended-release/Simvastatin tablets in healthy Chinese volunteers; assay type: in vivo; conditions: for CLz/F: human plasma; for AUC(0-t) / AUC(0-inf) / Tmax / half-life / Cmax / k el / MRT last / Vd/F: both sexes, human, plasma, po; for k el: n = 12, read-out: K e (converted); for MRT last: n = 12, read-out: MRT0–t; for Vd/F: n = 12, read-out: V z/F
Procedure: Extraction of NA and NUA was carried out by protein precipitation. First, 50 μL of the IS working solution (1000 ng/mL 5-FU) and 50 μL of water were added to a 100 μL aliquot of human plasma. The sample mixture was then deproteinized with 250 μL of acetonitrile, and the precipitate was removed by centrifugation at 15000 rpm for 10 min. The supernatant was transferred to another tube and evaporated under a gentle stream of nitrogen at 40°C until it is dry. The residue was reconstituted in 150 μL mobile phase and vortex-mixed for 30 sec. An aliquot of 40 μL of the solution was injected into the LC-MS/MS system for analysis.
Before conducting the study all subjects provided written informed consent to participate. The study was designed as randomized, open-label, crossover, and single dose periods with a 7-day washout between each treatment. A total of 12 healthy Chinese volunteers (6 males and 6 females) aged 20 to 35 years with a body mass index between 19 and 24 kg/m^2 were recruited. Subjects were randomized into three groups (2 males and 2 females for each treatment). They were orally dosed with Niacin extended-release/Simvastatin 1, 2, and 3 tablets once daily, separately. The venous blood samples were collected at time intervals (0, 0.33, 0.66, 1.0, 1.5, 2.0, 2.5, 3.0, 3.5, 4.0, 5.0, 6.0, 8.0, 12, and 24 h) in separate vacutainers during the treatment. All blood samples were centrifuged at 3000 ×g for 10 min and the plasma was separated and kept frozen at −20°C until analysis.
The pharmacokinetic parameters were calculated with data analysis system (DAS) program (version 2.0, Mathematical Pharmacology Professional Committee, Shanghai, China). The maximum plasma concentration (C max) and the corresponding time (T max) were obtained from observed data. The terminal elimination rate constant (K e) was estimated with least-squares regression of values in the terminal log-linear region of plasma concentration-time curves, and the terminal elimination half-life (t 1/2) was calculated to be 0.693/K e. The area under the curve from time zero to the last sampling time (AUC0−t) was determined using the linear trapezoidal rule.

[2] = Stability of stock solutions of NA and NUA; assay type: physicochemical
Procedure: Two separate stock solutions of the analytes were prepared at 1 mg/mL in methanol-water (50 : 50, v/v) and stored at −20°C. A series of standard working solutions for NA and NUA were prepared by diluting stock solution with methanol-water (50 : 50, v/v). The 5-FU solution was brought to a final concentration of 1000 ng/mL in acetonitrile from 1 mg/mL in acetonitrile. All working solutions were stored at 4°C and brought to room temperature before use. Calibration standards and quality control samples were prepared by spiking 50 μL of the working solutions and 50 μL of IS into 100 μL of drug-free human plasma. Matrix-matched NA and NUA calibration standards were prepared in plasma at concentrations of 5, 10, 20, 60, 200, 600, and 800 ng/mL, respectively. Similarly, NA and NUA quality control (QC) samples were prepared separately in plasma to give concentrations of 10, 60, and 600 ng/mL.

[3] = for Found C / Found R.E.: n = 3
Procedure: The following stability tests were evaluated: (1) stability of the stock solutions of the analytes; (2) freeze and thaw stability of the analytes in the plasma from −20°C to room temperature for three cycles; (3) short-term stability of the analytes in plasma at room temperature before extraction for 3 h and the ready-to-inject samples (after extraction, in the mobile phase) to the autosampler rack for 4 h; and (4) long-term stability of the analytes in matrix stored at −20°C for two months. All stability tests samples at three concentration levels (10, 60, and 600 ng/mL) were analyzed in triplicate and the deviations were determined in relation to freshly prepared samples.

[4] = 1 tablet (500 mg/10 mg), mean ± S.D., n = 12
[5] = 2 tablets (1000 mg/20 mg), mean ± S.D., n = 12
[6] = 3 tablets (1500 mg/30 mg), mean ± S.D., n = 12
[7] = 1 tablet (500 mg/10 mg), mean ± S.D.
[8] = 2 tablets (1000 mg/20 mg), mean ± S.D.
[9] = 3 tablets (1500 mg/30 mg), mean ± S.D.
[10] = extracted plasma sample in mobile phase, autosampler for 4 h (24°C), added 10.0 ng/mL
[11] = extracted plasma sample in mobile phase, autosampler for 4 h (24°C), added 60.0 ng/mL
[12] = extracted plasma sample in mobile phase, autosampler for 4 h (24°C), added 600.0 ng/mL
[13] = human plasma, long-term (2 months at −20°C), added 10.0 ng/mL
[14] = human plasma, long-term (2 months at −20°C), added 60.0 ng/mL
[15] = human plasma, long-term (2 months at −20°C), added 600.0 ng/mL
[16] = human plasma, short-term (3 h at 24°C), added 10.0 ng/mL
[17] = human plasma, short-term (3 h at 24°C), added 60.0 ng/mL
[18] = human plasma, short-term (3 h at 24°C), added 600.0 ng/mL
[19] = human plasma, three freeze/thaw cycles, added 10.0 ng/mL
[20] = human plasma, three freeze/thaw cycles, added 60.0 ng/mL
[21] = human plasma, three freeze/thaw cycles, added 600.0 ng/mL

For `O=C(O)c1cccnc1` [NA, 3-pyridine-carboxylic acid], the CLz/F [1, 4] was 1271 ± 850.0 L/h, the CLz/F [1, 5] was 744.0 ± 356.0 L/h and the CLz/F [1, 6] was 526.0 ± 421.0 L/h. For the same compound, the AUC(0-t) ([1]; 1 tablet) was 349 ± 192 ng·h/mL, the AUC(0-inf) [1, 4] was 518 ± 226 ng·h/mL and the AUC(0-t) [1, 4] was 385 ± 192 ng·h/mL. It also gave a Tmax [1, 4] of 2.94 ± 2.63 h, a half-life [1, 4] of 8.8 ± 8.49 h and a Cmax ([1]; 1 tablet (500 mg/10 mg), mean ± S.D., n = 12, read-out: C max) of 160 ± 125 ng/mL. The k el [1, 7] was 5.28e-05 s⁻¹, the MRT last [1, 7] was 5.37 ± 1.96 h and the Vd/F [1, 7] was 13700 ± 11600 L. For the same compound, the Cmax ([1]; 1 tablet, read-out: mean maximum plasma concentration (C max)) was 160 ± 125 ng/mL, the AUC(0-t) ([1]; 2 tablets) was 1540 ± 957 ng·h/mL and the AUC(0-inf) [1, 5] was 1720 ± 923 ng·h/mL. The AUC(0-t) [1, 5] was 1540 ± 957 ng·h/mL, the Tmax [1, 5] was 1.82 ± 1.69 h and the half-life [1, 5] was 7.33 ± 8.68 h. For the same compound, the Cmax ([1]; 2 tablets (1000 mg/20 mg), mean ± S.D., n = 12, read-out: C max) was 904 ± 487 ng/mL, the k el [1, 8] was 0.000119 s⁻¹ and the MRT last [1, 8] was 4.4 ± 2.21 h. The Vd/F [1, 8] was 7650 ± 9320 L, the Cmax ([1]; 2 tablets, read-out: C max) was 904 ± 487 ng/mL and the AUC(0-t) ([1]; 3 tablets) was 6020 ± 6580 ng·h/mL. For the same compound, the AUC(0-inf) [1, 6] was 6100 ± 6550 ng·h/mL, the AUC(0-t) [1, 6] was 6020 ± 6580 ng·h/mL and the Tmax [1, 6] was 2.42 ± 1.64 h. It also gave a half-life [1, 6] of 5.4 ± 4.57 h, a Cmax ([1]; 3 tablets (1500 mg/30 mg), mean ± S.D., n = 12, read-out: C max) of 2480 ± 1430 ng/mL and a k el [1, 9] of 7.5e-05 s⁻¹. It also gave an MRT last [1, 9] of 3.65 ± 1.33 h, a Vd/F [1, 9] of 5200 ± 6650 L and a Cmax ([1]; 3 tablets, read-out: C max) of 2480 ± 1430 ng/mL. The “R.E.% of response, stock solution stability” value ([2]; seven days at −20°C versus before) was −5.8%, the “R.E.% of response, stock solution stability” value ([2]; six h at room temperature versus before) was −1.1% and the “Found C” value [3, 10] was 9.6 ng/mL. The “Found R.E.” value [3, 10] was −3.7%, the “Found C” value [3, 11] was 62.7 ng/mL and the “Found R.E.” value [3, 11] was 4.5%. For the same compound, the “Found C” value [3, 12] was 578.3 ng/mL, the “Found R.E.” value [3, 12] was −3.6% and the “Found C” value [3, 13] was 9.6 ng/mL. The “Found R.E.” value [3, 13] was −4.1%, the “Found C” value [3, 14] was 53.7 ng/mL and the “Found R.E.” value [3, 14] was −10.6%. The “Found C” value [3, 15] was 595.3 ng/mL, the “Found R.E.” value [3, 15] was −0.8% and the “Found C” value [3, 16] was 9.1 ng/mL. For the same compound, the “Found R.E.” value [3, 16] was −8.9%, the “Found C” value [3, 17] was 58.8 ng/mL and the “Found R.E.” value [3, 17] was −2.1%. The “Found C” value [3, 18] was 636.3 ng/mL, the “Found R.E.” value [3, 18] was 6.0% and the “Found C” value [3, 19] was 9.5 ng/mL. The “Found R.E.” value [3, 19] was −4.6%, the “Found C” value [3, 20] was 58.0 ng/mL and the “Found R.E.” value [3, 20] was −3.28%. The “Found C” value [3, 21] was 546.3 ng/mL, the “Found R.E.” value [3, 21] was −9.0% and the “stability in human plasma” value ([3]; variety of storage and process conditions (Tables 2 and 3)) was “did not reveal any significant degradation”.

Reference: publication PMC4541002, “Quantification of Niacin and Its Metabolite Nicotinuric Acid in Human Plasma by LC-MS/MS: Application to a Clinical Trial of a Fixed Dose Combination Tablet of Niacin Extended-Release/Simvastatin (500 mg/10 mg) in Healthy Chinese Volunteers” (International Journal of Analytical Chemistry, 2015)
